Measurements as given in ChEMBL document CHEMBL1150959 (J Nat Prod, 1998).
The source made the active and inactive calls. The rule behind the calls is not given here.

How the values were obtained:
[1] = target: Prostaglandin G/H synthase 1 (Bos taurus) (UniProt O62698); assay: Inhibition of COX1-catalyzed prostaglandin biosynthesis at 200 ug/ml without preincubation; settings: TDE = time-dependent effect
[2] = Ratio of IC50 for COX2 to IC50 for COX1
[3] = target: Prostaglandin G/H synthase 1 (Bos taurus) (UniProt O62698); assay: Inhibition of COX1-catalyzed prostaglandin biosynthesis 10 mins of preincubation
[4] = target: Prostaglandin G/H synthase 1 (Bos taurus) (UniProt O62698); assay: Inhibition of COX1-catalyzed prostaglandin biosynthesis at 100 ug/ml without preincubation

Chain of Prostaglandin G/H synthase 1 (Bos taurus) (O62698 whole entry, looked up): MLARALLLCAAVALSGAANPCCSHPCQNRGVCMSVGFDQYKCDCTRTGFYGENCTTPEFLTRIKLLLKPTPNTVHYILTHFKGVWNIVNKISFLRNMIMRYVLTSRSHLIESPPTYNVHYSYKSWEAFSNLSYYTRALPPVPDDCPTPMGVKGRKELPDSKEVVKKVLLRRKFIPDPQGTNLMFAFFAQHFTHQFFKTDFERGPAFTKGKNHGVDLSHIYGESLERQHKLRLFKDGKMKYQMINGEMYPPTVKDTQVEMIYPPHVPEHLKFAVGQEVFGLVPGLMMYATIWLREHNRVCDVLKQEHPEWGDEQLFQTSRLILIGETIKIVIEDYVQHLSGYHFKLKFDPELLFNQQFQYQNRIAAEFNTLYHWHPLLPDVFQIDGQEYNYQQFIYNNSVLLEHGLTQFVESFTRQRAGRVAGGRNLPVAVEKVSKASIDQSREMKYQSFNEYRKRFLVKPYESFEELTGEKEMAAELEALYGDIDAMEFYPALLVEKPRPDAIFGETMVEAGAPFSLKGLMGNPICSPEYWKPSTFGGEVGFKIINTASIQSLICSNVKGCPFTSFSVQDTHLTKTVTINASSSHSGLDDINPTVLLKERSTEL

- Activity [1]: tde
- Ratio IC50 [2]: 0.6
- IC50 [3]: 210 µM
- Activity [4]: Active
Compound: C[C@H]1[C@H](C)CC[C@]2(C(=O)O)CC[C@]3(C)C(=CC[C@@H]4[C@@]5(C)CC[C@H](O)C(C)(C)[C@@H]5CC[C@]43C)[C@H]12 [URSOLIC ACID]
